Laboratory results as given in patent publication US8933094B2, “Ethynyl compounds useful for treatment of CNS disorder” (Hoffmann-La Roche Inc., priority 2009, dated 2015).

Target: T1, human mGlu5a receptor (Homo sapiens, UniProt P41594)
T1 construct: expressed in transfected cells
Test: Intracellular Ca2+ mobilization assay (mGlu5 PAM)
Type: cell-based
Settings: for EC50: HEK-293 cells stably transfected with human mGlu5a, L-glutamate added at EC20 after 10-30 min pre-incubation with test compound, read-out: EC50 (nM) mGlu5PAM; for Emax: maximal response in % of the maximal stimulatory effect obtained with saturating concentrations of L-glutamate, read-out: Eff. (%)
Experimental: A monoclonal HEK-293 cell line stably transfected with a cDNA encoding for the human mGlu5a receptor was generated; for the work with mGlu5 Positive Allosteric Modulators (PAMs), a cell line with low receptor expression levels and low constitutive receptor activity was selected to allow the differentiation of agonistic versus PAM activity. Cells were cultured according to standard protocols (Freshney, 2000) in Dulbecco's Modified Eagle Medium with high glucose supplemented with 1 mM glutamine, 10% (vol/vol) heat-inactivated bovine calf serum, Penicillin/Streptomycin, 50 μg/ml hygromycin and 15 μg/ml blasticidin (all cell culture reagents and antibiotics from Invitrogen, Basel, Switzerland).
About 24 hrs before an experiment, 5×10^4 cells/well were seeded in poly-D-lysine coated, black/clear-bottomed 96-well plates. The cells were loaded with 2.5 μM Fluo-4AM in loading buffer (1×HBSS, 20 mM HEPES) for 1 hr at 37° C. and washed five times with loading buffer. The cells were transferred into a Functional Drug Screening System 7000 (Hamamatsu, Paris, France), and 11 half logarithmic serial dilutions of test compound at 37° C. were added and the cells were incubated for 10-30 min. with on-line recording of fluorescence. Following this pre-incubation step, the agonist L-glutamate was added to the cells at a concentration corresponding to EC20 (typically around 80 μM) with on-line recording of fluorescence; in order to account for day-to-day variations in the responsiveness of cells, the EC20 of glutamate was determined immediately ahead of each experiment by recording of a full dose-response curve of glutamate.
Responses were measured as peak increase in fluorescence minus basal (i.e. fluorescence without addition of L-glutamate), normalized to the maximal stimulatory effect obtained with saturating concentrations of L-glutamate. Graphs were plotted with the % maximal stimulatory using XLfit, a curve fitting program that iteratively plots the data using Levenburg Marquardt algorithm. The single site competition analysis equation used was y=A+((B−A)/(1+((x/C)D))), where y is the % maximal stimulatory effect, A is the minimum y, B is the maximum y, C is the EC50, x is the log 10 of the concentration of the competing compound and D is the slope of the curve (the Hill Coefficient). From these curves the EC50 (concentration at which half maximal stimulation was achieved), the Hill coefficient as well as the maximal response in % of the maximal stimulatory effect obtained with saturating concentrations of L-glutamate were calculated.
A depression of the signal observed after addition of the EC20 concentration of L-glutamate was indicative of an inhibitory activity of the test compound.

T1 sequence (P41594 21-1180 isoform P41594-2 limits assumed): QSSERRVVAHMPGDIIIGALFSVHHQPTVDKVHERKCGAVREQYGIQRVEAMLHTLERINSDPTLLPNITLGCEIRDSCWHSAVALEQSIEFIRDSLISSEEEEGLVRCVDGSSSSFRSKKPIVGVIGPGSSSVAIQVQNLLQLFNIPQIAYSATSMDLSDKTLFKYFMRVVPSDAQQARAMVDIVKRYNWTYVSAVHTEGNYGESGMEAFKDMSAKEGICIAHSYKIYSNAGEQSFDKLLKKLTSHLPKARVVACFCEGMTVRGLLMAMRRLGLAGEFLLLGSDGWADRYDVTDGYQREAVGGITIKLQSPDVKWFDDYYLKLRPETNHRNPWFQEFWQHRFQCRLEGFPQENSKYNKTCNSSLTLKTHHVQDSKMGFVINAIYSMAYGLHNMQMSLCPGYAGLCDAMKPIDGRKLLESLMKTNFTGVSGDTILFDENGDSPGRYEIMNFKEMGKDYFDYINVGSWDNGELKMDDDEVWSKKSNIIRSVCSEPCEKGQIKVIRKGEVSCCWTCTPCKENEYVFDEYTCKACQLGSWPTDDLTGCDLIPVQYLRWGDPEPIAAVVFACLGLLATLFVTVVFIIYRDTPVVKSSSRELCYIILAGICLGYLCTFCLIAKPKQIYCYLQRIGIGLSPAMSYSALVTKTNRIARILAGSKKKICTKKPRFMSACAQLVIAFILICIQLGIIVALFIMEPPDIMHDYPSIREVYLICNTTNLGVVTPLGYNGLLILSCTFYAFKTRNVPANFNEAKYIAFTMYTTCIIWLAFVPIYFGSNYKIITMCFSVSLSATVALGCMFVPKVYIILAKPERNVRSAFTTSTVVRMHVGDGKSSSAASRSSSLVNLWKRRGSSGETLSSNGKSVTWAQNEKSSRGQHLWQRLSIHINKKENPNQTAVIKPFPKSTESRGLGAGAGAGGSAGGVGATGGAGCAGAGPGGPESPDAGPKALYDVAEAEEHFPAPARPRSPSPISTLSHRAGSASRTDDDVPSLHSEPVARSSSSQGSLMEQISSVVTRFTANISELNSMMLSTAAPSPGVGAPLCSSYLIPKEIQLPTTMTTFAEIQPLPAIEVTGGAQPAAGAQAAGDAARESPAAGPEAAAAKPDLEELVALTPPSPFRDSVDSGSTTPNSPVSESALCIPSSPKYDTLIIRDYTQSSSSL

Compound	EC50	Emax
CC(C)(C)c1cc2ncc(C#Cc3ccc(F)cc3)cn2n1 [Example 12, 2-tert-Butyl-6-(4-fluoro-phenylethynyl)-pyrazolo[1,5-a]pyrimidine]	7 nM	75%
CC(C)(C)c1cc2ncc(C#Cc3ccncc3)cn2n1 [Example 14, 2-tert-Butyl-6-pyridin-4-ylethynyl-pyrazolo[1,5-a]pyrimidine]	4 nM	37%
Cc1cc2ncc(C#Cc3ccccc3)cn2n1 [Example 2, 2-Methyl-6-phenylethynyl-pyrazolo[1,5-a]pyrimidine]	49 nM	99%
CC(C)(C)c1cc2ncc(C#Cc3cccnc3)cn2n1 [Example 13, 2-tert-Butyl-6-pyridin-3-ylethynyl-pyrazolo[1,5-a]pyrimidine]	33 nM	88%
Cc1cc2ncc(C#Cc3ccc(Cl)cc3)cn2n1 [Example 8, 6-(4-Chloro-phenylethynyl)-2-methyl-pyrazolo[1,5-a]pyrimidine]	148 nM	69%
COc1cccc(C#Cc2cnc3cc(C(C)(C)C)nn3c2)c1 [Example 17, 2-tert-Butyl-6-(3-methoxy-phenylethynyl)-pyrazolo[1,5-a]pyrimidine]	104 nM	41%
COc1ccc(C#Cc2cnc3cc(C(C)(C)C)nn3c2)cc1 [Example 15, 2-tert-Butyl-6-(4-methoxy-phenylethynyl)-pyrazolo[1,5-a]pyrimidine]	68 nM	53%
C(#Cc1cnc2ccnn2c1)c1ccccc1 [Example 1, 6-Phenylethynyl-pyrazolo[1,5-a]pyrimidine]	70 nM	116%
Cc1cc2ncc(C#Cc3ccncc3)cn2n1 [Example 6, 2-Methyl-6-pyridin-4-ylethynyl-pyrazolo[1,5-a]pyrimidine]	498 nM	82%

Next, values leading:

EC50	Emax	Compound
18 nM	53%	CC(C)c1cc2ncc(C#Cc3ccccc3)cn2n1 [Example 38, 2-Isopropyl-6-phenylethynyl-pyrazolo[1,5-a]pyrimidine]
400 nM	89%	CC(C)(C)c1cc2ncc(C#Cc3ccc(Cl)cc3)cn2n1 [Example 20, 2-tert-Butyl-6-(4-chloro-phenylethynyl)-pyrazolo[1,5-a]pyrimidine]
50 nM	77%	C(#Cc1ccc2cnnn2c1)c1ccccc1 [Example 34, 6-Phenylethynyl-[1,2,3]triazolo[1,5-a]pyridine]
50 nM	101%	Fc1cccc(C#Cc2cnc3nc(N4CCOCC4)nn3c2)c1 [Example 49, 6-(3-Fluoro-phenylethynyl)-2-morpholin-4-yl-[1,2,4]triazolo[1,5-a]pyrimidine]
274 nM	123%	C(#Cc1ccc2ncnn2c1)c1ccccc1 [Example 31, 6-Phenylethynyl-[1,2,4]triazolo[1,5-a]pyridine]
69 nM	119%	C(#Cc1cnc2nc(N3CCOCC3)nn2c1)c1ccccc1 [Example 47, 2-Morpholin-4-yl-6-phenylethynyl-[1,2,4]triazolo[1,5-a]pyrimidine]
155 nM	88%	CC(C)(C)c1cc2ncc(C#Cc3ccccc3N)cn2n1 [Example 36, 2-(2-tert-Butyl-pyrazolo[1,5-a]pyrimidin-6-ylethynyl)-phenylamine]
56 nM	141%	C(#Cc1cnc2nc(N3CCCC3)nn2c1)c1ccccc1 [Example 51, 6-Phenylethynyl-2-pyrrolidin-1-yl-[1,2,4]triazolo[1,5-a]pyrimidine]
9 nM	73%	CC(C)(C)c1nc2ncc(C#Cc3ccccc3)cn2n1 [Example 42, 2-tert-Butyl-6-phenylethynyl-[1,2,4]triazolo[1,5-a]pyrimidine]
58 nM	84%	Cc1cccc(C#Cc2cnc3nc(N4CCOCC4)nn3c2)c1 [Example 48, 2-Morpholin-4-yl-6-m-tolylethynyl-[1,2,4]triazolo[1,5-a]pyrimidine]
